Assay results as given in PubChem BioAssay AID1963835 (Molecular Pharmacology Branch, DTP, NCI, 2024).

Tested on: 699152-130-R-J1-PDC complex spheroid viability
Assay: Anticancer human tumor 699152-130-R-J1-PDC patient-derived pancreatic carcinoma cell line growth inhibition [POLQ]
Details: for IC50: curve of first compound; for viability, T/C: stronger effect = lower value
How it was run: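 Growth inhibition in 3D: complex spheroids (tumor PDC, HUVEC, MSC) treated with POLQ inhibitor combinations; where Cmax unknown, highest tested concentration 10 microM, except SN-38 at 1 microM.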
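Further: spheroids exposed to agents for 7 days before viability reading.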
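Wherever viability, T/C is given: percent of DMSO vehicle control viability so 100% = vehicle and 0% = no viable signal.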

CC1COCCN1c1cc(C2(O)CC3CCC(C2)O3)c2cnn(-c3ccn[nH]3)c2n1 (configuration not stated) + Cc1cccc(N(C)C(=O)C2C(O)CCN2c2nc(C)cc(C(F)(F)F)c2C#N)c1
IC50 (second compound 0.0316 µM): 1990 nM
IC50 (second compound 0.1 µM): 1200 nM
IC50 (second compound 0.316 µM): 1050 nM
IC50 (second compound 1 µM): 1690 nM
IC50 (second compound 3.16 µM): 1740 nM
IC50 (second compound 10 µM): 1940 nM
viability, T/C (second compound 0.0316 µM, first compound 0.0316 µM): 92.1%
viability, T/C (second compound 0.0316 µM, first compound 0.1 µM): 83.9%
viability, T/C (second compound 0.0316 µM, first compound 0.316 µM): 64.9%
viability, T/C (second compound 0.0316 µM, first compound 1 µM): 60.6%
viability, T/C (second compound 0.0316 µM, first compound 3.16 µM): 44.5%
viability, T/C (second compound 0.0316 µM, first compound 10 µM): 33.1%
viability, T/C (second compound 0.1 µM, first compound 0.0316 µM): 94.6%
viability, T/C (second compound 0.1 µM, first compound 0.1 µM): 78.7%
viability, T/C (second compound 0.1 µM, first compound 0.316 µM): 60.9%
viability, T/C (second compound 0.1 µM, first compound 1 µM): 52.2%
viability, T/C (second compound 0.1 µM, first compound 3.16 µM): 44%
viability, T/C (second compound 0.1 µM, first compound 10 µM): 38.6%
viability, T/C (second compound 0.316 µM, first compound 0.0316 µM): 93%
viability, T/C (second compound 0.316 µM, first compound 0.1 µM): 94%
viability, T/C (second compound 0.316 µM, first compound 0.316 µM): 64.6%
viability, T/C (second compound 0.316 µM, first compound 1 µM): 54.3%
viability, T/C (second compound 0.316 µM, first compound 3.16 µM): 47.4%
viability, T/C (second compound 0.316 µM, first compound 10 µM): 39.7%
viability, T/C (second compound 1 µM, first compound 0.0316 µM): 96.3%
viability, T/C (second compound 1 µM, first compound 0.1 µM): 83.1%
viability, T/C (second compound 1 µM, first compound 0.316 µM): 66.4%
viability, T/C (second compound 1 µM, first compound 1 µM): 52.8%
viability, T/C (second compound 1 µM, first compound 3.16 µM): 47.5%
viability, T/C (second compound 1 µM, first compound 10 µM): 37.8%
viability, T/C (second compound 3.16 µM, first compound 0.0316 µM): 98.2%
viability, T/C (second compound 3.16 µM, first compound 0.1 µM): 87.2%
viability, T/C (second compound 3.16 µM, first compound 0.316 µM): 62.3%
viability, T/C (second compound 3.16 µM, first compound 1 µM): 58.8%
viability, T/C (second compound 3.16 µM, first compound 3.16 µM): 45%
viability, T/C (second compound 3.16 µM, first compound 10 µM): 33.6%
viability, T/C (second compound 10 µM, first compound 0.0316 µM): 84.6%
viability, T/C (second compound 10 µM, first compound 0.1 µM): 81.8%
viability, T/C (second compound 10 µM, first compound 0.316 µM): 69.7%
viability, T/C (second compound 10 µM, first compound 1 µM): 57.3%
viability, T/C (second compound 10 µM, first compound 3.16 µM): 44.9%
viability, T/C (second compound 10 µM, first compound 10 µM): 39.1%
